Experimental data as given in PubChem BioAssay (NCI).
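48-hour exposure; five concentrations; linearly interpolated endpoints. GI50: concentration for 50% inhibition of growth. TGI: total growth inhibition.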 *1 amine or outer side, *2 acyl side, *3 side chain or, on linkers, in order; H or OH if unused. Where a SMILES comes first, the peptide text is derived from it. Bridges are numbered along the chain shown (N, C = ends). [ ]: non-standard residue; d: D form. X59 = COc1c(N[*:1])cccc1C(=O)O[C@H](C(=O)[C@H](C)C(=O)[*:2])C(C)C; X58 = CC(C)C[C@H](C(=O)[*:2])C(C)C(=O)C1CCCN1[*:1]; NMeY = CN[C@@H](Cc1ccc(O)cc1)C(=O)O; Lac = C[C@H](O)C(=O)O

How the values were obtained:
Assay in all cases: NCI tumour cell line growth inhibition, 48 h
NCI/ADR-RES ovarian = system: NCI/ADR-RES ovarian
HS 578T breast = system: HS 578T breast
SF-295 CNS = system: SF-295 CNS
MALME-3M melanoma = system: MALME-3M melanoma
NCI-H460 lung = system: NCI-H460 lung
ACHN renal = system: ACHN renal
SNB-19 CNS = system: SNB-19 CNS
M14 melanoma = system: M14 melanoma
HCT-116 colon = system: HCT-116 colon
SR leukemia = system: SR leukemia
HCT-15 colon = system: HCT-15 colon
UO-31 renal = system: UO-31 renal
TK-10 renal = system: TK-10 renal
HCC-2998 colon = system: HCC-2998 colon

Structure (SMILES)	TGI (NCI/ADR-RES ovarian) [µM]	TGI (HS 578T breast) [µM]	TGI (SF-295 CNS) [µM]	TGI (MALME-3M melanoma) [µM]	TGI (NCI-H460 lung) [µM]	TGI (ACHN renal) [µM]	TGI (SNB-19 CNS) [µM]	TGI (M14 melanoma) [µM]	TGI (HCT-116 colon) [µM]	TGI (SR leukemia) [µM]	TGI (HCT-15 colon) [µM]	TGI (UO-31 renal) [µM]	TGI (TK-10 renal) [µM]	TGI (HCC-2998 colon) [µM]	GI50 (SF-295 CNS) [µM]	GI50 (NCI-H460 lung) [µM]	GI50 (HCT-116 colon) [µM]
Cc1c(-c2ccccc2)c(C#N)c2nnn(C)c(=O)n12	> 100	> 100	> 100	> 100	> 100	> 100	> 100	> 100	> 100	> 100	> 100	> 100	> 100	> 100	–	–	–
Oc1ccccc1-c1n[nH]c(-c2ccccc2O)n1	> 100	> 100	> 100	> 100	> 100	> 100	–	> 100	> 100	> 100	> 33.6	> 100	> 100	> 96.7	–	–	–
O=C1O/C(=C(/Cl)c2c3ccccc3cc3ccccc23)c2ccccc21	> 100	59.8	> 100	> 100	> 100	82.9	> 100	53.8	9.58	35.6	> 100	> 100	> 100	> 100	–	–	–
COC(=O)/C=C1/OC(c2ccc(C)cc2C)=CC1=O	42.3	81.7	–	29.9	36.5	29.3	–	31.1	24.1	> 100	29.3	30.5	31.3	30.5	–	–	–
Cc1ccc2nc(-c3ccc(-c4nc5ccc(C)cc5o4)c(O)c3)oc2c1	> 100	> 100	–	–	> 100	> 100	> 100	> 100	> 100	> 100	> 100	> 100	> 100	> 100	–	–	–
CC1(C)N([O-])[N+](=O)C1(Br)c1ccccc1 (stereo unspecified)	> 100	> 100	> 100	> 100	> 100	> 100	> 100	> 100	> 100	> 100	> 100	> 100	> 100	> 100	–	–	–
CC1=NN(C(=O)CC(=O)Nc2ccc(Cl)cc2)C(=O)C1N=Nc1ccc(S(=O)(=O)c2ccc(N=NC3C(=O)N(C(=O)CC(=O)Nc4ccc(Cl)cc4)N=C3C)cc2)cc1 (stereo unspecified)	> 100	> 100	> 100	> 100	> 100	> 100	> 100	> 100	> 100	> 100	> 100	> 100	79.1	> 100	–	–	–
COc1cc(/C=C2\CC(C)C/C(=C\c3ccc(O)c(OC)c3)C2=O)ccc1O (stereo unspecified)	> 62.2	10.4	29.8	8.75	9.45	10.2	22.3	8.22	3.4	> 25.5	4.93	5.41	15.8	12.5	–	–	–
COc1ccc(C[C@H]2C(=O)O[C@H](C)[C@H](NC(=O)[C@@H](CC(C)C)C(C)C(=O)C3CCCN3C(=O)[C@H](C)O)C(=O)Nc3cccc(c3OC)C(=O)O[C@@H](C(C)C)C(=O)[C@H](C)C(=O)N[C@@H](CC(C)C)C(=O)N3CCC[C@H]3C(=O)N2C)cc1 (stereo partly specified) (H-[Lac][X58]T[X59]LP[NMeY](Me); ester 3-C)	> 12.5	> 12.5	> 12.5	> 12.5	> 12.5	> 12.5	> 12.5	> 12.5	> 12.5	> 12.5	> 12.5	> 12.5	> 12.5	> 12.5	–	–	–
N/N=C(/CC(O)(C(F)(F)F)C(F)(F)F)c1ccccc1	> 10	> 10	> 10	> 10	> 10	> 10	> 10	> 10	> 10	> 10	> 10	–	> 10	> 10	–	–	–
COC(=O)/C=C/C(=O)Nc1cc(Cl)c(Cl)cc1CC(=O)N(C)[C@H]1CCCC[C@@H]1N1CCCC1	35.1	36	36.2	20.5	31.9	14.6	37.7	32.3	23.3	> 28.3	28	21.3	11.1	21.2	–	–	–
C=CC[C@@]12CCC(=O)C=C1CCCC2=O	> 100	> 100	> 100	> 100	> 100	> 100	> 100	> 100	> 100	> 100	> 100	> 100	> 100	> 100	–	–	–
COCCNC1CCC(=O)c2[nH]c3ccccc3c21 (stereo unspecified)	> 100	> 100	> 100	> 100	> 100	> 100	> 100	> 100	> 100	> 100	> 100	> 100	> 100	> 100	–	–	–
O=c1cc(-c2ccc3ccccc3c2)[nH]c2ncccc12	> 100	> 100	> 100	> 100	> 100	> 100	> 100	> 100	> 100	6.1	> 100	> 100	> 100	> 100	9.19	3.79	3.83
CN(C)CCN=C1Nc2ccccc2C(=O)N2CSCC12 (stereo unspecified)	> 100	> 100	> 100	> 100	> 100	> 100	> 100	> 100	> 100	> 100	> 100	> 100	> 100	> 100	–	–	–
COc1ccc(C(c2cc(OC)c(OC)c(OC)c2)N2C(=O)CCC2C(=O)O)cc1 (stereo unspecified)	> 100	> 100	66.4	> 100	> 100	> 100	> 100	> 100	> 100	> 100	> 100	> 100	> 100	> 100	–	–	–
